The record followed here is patent US20260232812A1, “BIFUNCTIONAL MOLECULES FOR TARGETED PROTEIN DEGRADATION” (Amphista Therapeutics Limited, priority 2022, published 2026).

As usually defined, the DC50 is the concentration at which degradation of the target reaches its halfway point. One may read the Dmax as the largest share of the target that was removed. A low value points to shallow degradation.

The test deals with T1, BRD4 (Homo sapiens, UniProt O60885).
T1 construct: HEK293 containing a HiBit insertion for BRD4; endogenous in cells; host or cells: HEK293 with a HiBiT insertion for BRD4
Nature of the test: Assay 1 - Degradation of HiBit-BRD4 in HEK293. Type of test: cell-based. Conditions: HiBit-BRD4 in HEK293, 6 h treatment. As to the method:
1.1 Assay 1-Degradation of HiBit-BRD4 in HEK293
HEK293 containing a HiBit insertion for BRD4 were plated in 384-well tissue culture plates at a density of 8×10^4 per well in a volume of 36 μL and incubated overnight at 37° C. and 5% CO2. Wells were treated with test compounds for 6 h prior to addition of the NanoLuc substrate and reading on a […]. Degradation data was plotted and analysed using […] (Graphpad).
Background: The HiBiT peptide binds its large partner to form an active luciferase.
`CC(=O)N1c2ccc(-c3ccc(C(=O)NCCOCCOCCOCCOCCOCCNC(=O)C4CC(C5CC5)CN(C(=O)/C(C#N)=C/C(C)(C)C)C4)cc3)cc2[C@H](Nc2ccc(Cl)cc2)C[C@@H]1C` (stereo partly shown) [Example 13v]: the DC50 is 25 to 200 nM and the Dmax is no less than 70%.

In turn, `CC(=O)N1c2ccc(-c3ccc(C(=O)NCCOCCOCCOCCOCCOCCNC(=O)[C@@H]4CN(C(=O)/C(C#N)=C/c5ccn(C)n5)C[C@H]4c4ccc(F)cc4)cc3)cc2[C@H](Nc2ccc(Cl)cc2)C[C@@H]1C` [Example 15ag] gave a DC50 of 25 to 200 nM and a Dmax of 30 to 50%.

`COc1ccc([C@@H]2CN(C(=O)/C(C#N)=C/c3ccn(C)n3)C[C@H]2C(=O)NCCOCCOCCOCCOCCOCCNC(=O)c2ccc(-c3ccc4c(c3)[C@H](Nc3ccc(Cl)cc3)C[C@H](C)N4C(C)=O)cc2)cc1` [Example 15ab] yielded a half-maximal degradation concentration (DC50) of 25 to 200 nM and a Dmax of 50 to 70%.

The compound `CC(=O)N1c2ccc(-c3ccc(C(=O)NCCOCCOCCOCCOCCOCCNC(=O)C4CC(C)CN(C(=O)/C(C#N)=C/C(C)(C)C)C4)cc3)cc2[C@H](Nc2ccc(Cl)cc2)C[C@@H]1C` (stereo partly shown) [Example 13g] displayed a 50% degradation concentration (DC50) greater than 200 nM and a Dmax of 50 to 70%.

In turn, `CC(=O)N1c2ccc(-c3ccc(C(=O)NCCOCCOCCOCCOCCOCCNC(=O)[C@@H]4CN(C(=O)/C(C#N)=C/c5ccn(C)n5)C[C@H]4C(C)C)cc3)cc2[C@H](Nc2ccc(Cl)cc2)C[C@@H]1C` [Example 15h] returned a DC50 of 25 to 200 nM and a Dmax of 50 to 70%.

On to `CC(=O)N1c2ccc(-c3ccc(C(=O)NCCOCCOCCOCCOCCOCCNC(=O)[C@@H]4CN(C(=O)/C(C#N)=C/C(C)(C)C)C[C@H]4c4cccc(C)c4)cc3)cc2[C@H](Nc2ccc(Cl)cc2)C[C@@H]1C` [Example 15ak, N-(1-(4-((2S,4R)-1-acetyl-4-((4-chlorophenyl)amino)-2-methyl-1,2,3,4-tetrahydroquinolin-6-yl)phenyl)-1-oxo-5,8,11,14,17-pentaoxa-2-azanonadecan-19-yl)-1-((E)-2-cyano-4,4-dimethylpent-2-enoyl)-4-(m-tolyl)pyrrolidine-3-carboxamide], for which the DC50 fell in the range of 25 to 200 nM and the Dmax was no less than 70%.

For `COc1ccc(C2CC(C(=O)NCCOCCOCCOCCOCCOCCNC(=O)c3ccc(-c4ccc5c(c4)[C@H](Nc4ccc(Cl)cc4)C[C@H](C)N5C(C)=O)cc3)CN(C(=O)/C(C#N)=C/c3ccn(C)n3)C2)cc1` (stereo partly shown) [Example 13ag], the DC50 lay in the range of 25 to 200 nM and the Dmax lay within 50 to 70%.

In turn, `CC(=O)N1c2ccc(-c3ccc(C(=O)NCCOCCOCCOCCOCCOCCNC(=O)[C@@H]4CN(C(=O)/C(C#N)=C/c5nccs5)C[C@H]4c4ccc(F)cc4)cc3)cc2[C@H](Nc2ccc(Cl)cc2)C[C@@H]1C` [Example 15ae] displayed a DC50 of 25 to 200 nM and a Dmax of no less than 70%.

Take `CC(=O)N1c2ccc(-c3ccc(C(=O)NCCOCCOCCOCCOCCOCCNC(=O)C4CCCN(C(=O)/C(C#N)=C/C(C)(C)CN5CCOCC5)C4)cc3)cc2[C@H](Nc2ccc(Cl)cc2)C[C@@H]1C` (stereo partly shown) [Example 13e]: the DC50 is greater than 200 nM and the greatest degradation seen (Dmax) is 30 to 50%.

`COc1ccc([C@@H]2CN(C(=O)/C(C#N)=C/c3nccs3)C[C@H]2C(=O)NCCOCCOCCOCCOCCOCCNC(=O)c2ccc(-c3ccc4c(c3)[C@H](Nc3ccc(Cl)cc3)C[C@H](C)N4C(C)=O)cc2)cc1` [Example 15z]: the half-maximal degradation concentration (DC50) fell in the range of 25 to 200 nM and the Dmax fell in the range of 30 to 50%.

In turn, `CC(=O)N1c2ccc(-c3ccc(C(=O)NCCOCCOCCOCCOCCOCCNC(=O)[C@@H]4CN(C(=O)/C(C#N)=C/C(C)(C)CN5CCOCC5)C[C@H]4c4cccc(C)c4)cc3)cc2[C@H](Nc2ccc(Cl)cc2)C[C@@H]1C` [Example 15an] gave a DC50 of 25 to 200 nM and a Dmax of 30 to 50%.

In the case of `CC(=O)N1c2ccc(-c3ccc(C(=O)NCCOCCOCCOCCOCCOCCNC(=O)[C@@H]4CN(C(=O)/C(C#N)=C/C(C)(C)C)C[C@H]4C)cc3)cc2[C@H](Nc2ccc(Cl)cc2)C[C@@H]1C` [Example 15b], the DC50 fell in the range of 25 to 200 nM and the Dmax is no less than 70%.

Regarding `CC(=O)N1c2ccc(-c3ccc(C(=O)NCCOCCOCCOCCOCCOCCNC(=O)[C@@H]4CN(C(=O)/C(C#N)=C/C(C)(C)CN5CCOCC5)C[C@H]4c4ccc(F)cc4)cc3)cc2[C@H](Nc2ccc(Cl)cc2)C[C@@H]1C` [Example 15ai], the DC50 is 25 to 200 nM and the Dmax was 30 to 50%.

The compound `CC(=O)N1c2ccc(-c3ccc(C(=O)NCCOCCOCCOCCOCCOCCNC(=O)C4CC(C5CCCCC5)CN(C(=O)/C(C#N)=C/c5ccn(C)n5)C4)cc3)cc2[C@H](Nc2ccc(Cl)cc2)C[C@@H]1C` (stereo partly shown) [Example 13r] yielded a DC50 of 25 to 200 nM and a Dmax of no less than 70%.

Compound `CC(=O)N1c2ccc(-c3ccc(C(=O)NCCOCCOCCOCCOCCOCCNC(=O)[C@@H]4CN(C(=O)/C(C#N)=C/C(C)(C)CN5CCOCC5)C[C@H]4C4CCCCC4)cc3)cc2[C@H](Nc2ccc(Cl)cc2)C[C@@H]1C` [Example 15t] returned a DC50 of 25 to 200 nM and a maximal degradation (Dmax) of no less than 70%.

In turn, `COc1ccc([C@@H]2CN(C(=O)/C(C#N)=C/c3ccc(F)cc3)C[C@H]2C(=O)NCCOCCOCCOCCOCCOCCNC(=O)c2ccc(-c3ccc4c(c3)[C@H](Nc3ccc(Cl)cc3)C[C@H](C)N4C(C)=O)cc2)cc1` [Example 15ac] displayed a DC50 greater than 200 nM and a Dmax of less than 50%.

`CC(=O)N1c2ccc(-c3ccc(C(=O)NCCOCCOCCOCCOCCOCCNC(=O)C4CCCN(C(=O)/C(C#N)=C/C(C)(C)C)C4)cc3)cc2[C@H](Nc2ccc(Cl)cc2)C[C@@H]1C` (stereo partly shown) [Example 13b] showed a 50% degradation concentration (DC50) of 25 to 200 nM and a Dmax of no less than 70%.

The compound `CC(=O)N1c2ccc(-c3ccc(C(=O)NCCOCCOCCOCCOCCOCCNC(=O)[C@@H]4CN(C(=O)/C(C#N)=C/C(C)(C)C)C[C@H]4C(C)C)cc3)cc2[C@H](Nc2ccc(Cl)cc2)C[C@@H]1C` [Example 15g] displayed a DC50 of 25 to 200 nM and a Dmax of no less than 70%.

As to `CC(=O)N1c2ccc(-c3ccc(C(=O)NCCOCCOCCOCCOCCOCCNC(=O)[C@@H]4CN(C(=O)/C(C#N)=C/c5ccn(C)n5)C[C@H]4c4cccc(C)c4)cc3)cc2[C@H](Nc2ccc(Cl)cc2)C[C@@H]1C` [Example 15al], the DC50 is greater than 200 nM and the Dmax is no less than 70%.

For `CC(=O)N1c2ccc(-c3ccc(C(=O)NCCOCCOCCOCCOCCOCCNC(=O)C4CC(c5cccc(C)c5)CN(C(=O)/C(C#N)=C/c5nccs5)C4)cc3)cc2[C@H](Nc2ccc(Cl)cc2)C[C@@H]1C` (stereo partly shown) [Example 13at], the DC50 lay within 25 to 200 nM and the Dmax was no less than 70%.

In turn, `COc1ccc(C2CC(C(=O)NCCOCCOCCOCCOCCOCCNC(=O)c3ccc(-c4ccc5c(c4)[C@H](Nc4ccc(Cl)cc4)C[C@H](C)N5C(C)=O)cc3)CN(C(=O)/C(C#N)=C/C(C)(C)C)C2)cc1` (stereo partly shown) [Example 13af] had a DC50 of 25 to 200 nM and a maximal degradation (Dmax) of 50 to 70%.

Take `CC(=O)N1c2ccc(-c3ccc(C(=O)NCCOCCOCCOCCOCCOCCNC(=O)[C@@H]4CN(C(=O)/C(C#N)=C/c5nccs5)C[C@H]4c4cccc(C)c4)cc3)cc2[C@H](Nc2ccc(Cl)cc2)C[C@@H]1C` [Example 15aj]: the DC50 lay within 25 to 200 nM and the Dmax lay in the range of 50 to 70%.

Regarding `CC(=O)N1c2ccc(-c3ccc(C(=O)NCCOCCOCCOCCOCCOCCNC(=O)[C@@H]4CN(C(=O)/C(C#N)=C/c5nccs5)C[C@H]4CC(C)C)cc3)cc2[C@H](Nc2ccc(Cl)cc2)C[C@@H]1C` [Example 15k], the DC50 lay in the range of 25 to 200 nM and the Dmax is no less than 70%.
